Laboratory results as given in patent publication US6492128B1, “Drug screen targeting lipoprotein-membrane anchorage” (Ramot University Authority for Applied Research & …, priority 1997, dated 2002).

Experiments:
[1] = target: T1, oncogenic Ras in isolated EJ cell membranes (Homo sapiens, UniProt P01112, G12V); assay: Cell-free assay: dislodging of Ras from isolated EJ cell membranes; type: biochemical, rat; conditions: for Dislodging of Ras (% of control) in a cell free system (10 μM drug): isolated EJ cell membranes, Ras in pellet; for dislodging of Ras from isolated membrane: 10 μM
T1 construct: expressed in transfected cells; host or cells: Rat1 fibroblasts transformed with Ha-Ras (EJ cells)
Procedure: The cell-free assay is utilized in these next experiments; i.e. the effect of FTS on Ras in isolated membranes was investigated. Briefly, we used EJ cell membranes (total particulate fraction) prepared in homogenization buffer (10 mM Tris-HCl, pH 8.5, 0.32 M sucrose) with protease inhibitors. The membranes were stored in aliquot at −70° C. and thawed prior to use. In a standard assay, membranes containing 15 μg of protein are incubated in a total volume of 100 μl of homogenization buffer with or without drug for 60 min at 37° C. The drugs are prepared freshly in 100% DMSO, and diluted with 50 mM Tris-HCl pH 8.5 to yield 5× drug concentration in 10% DMSO. It is important to prepare these solutions at room temperature, otherwise the drugs may precipitate. The drug solutions (20 μl) are pipetted into the assay tubes, the membrane/buffer mixtures (80 μl) are quickly added, the tubes are gently mixed, and the tubes are transferred to a 37° C. shaking water bath. The reactions are stopped by addition of 900 μl of cold homogenization buffer (without sucrose) containing 10 μg BSA. Following a 5 min incubation at room temperature, the membranes are pelleted by centrifugation in a benchtop microfuge (14,000 rpm). The supernatants are removed and the pellets are subjected to mini-SDS-PAGE followed by Immunoblotting (pan anti-Ras antibodies) and ECL assays. These assays are detailed infra. It is considered preferable to perform the reactions at 25-37° C. and to use relatively small amounts of membrane protein in the assay. Another preference is to dilute the membranes in a solution containing BSA at the end of the reaction period.

EJ cells = assay: Inhibition of EJ cells growth; type: cell-based, rat
Ras = conditions: cited from earlier work
[2] = system: Erb B2 and Ha-Ras-transformed cells; conditions: cited from earlier work
[3] = system: total oncogenic Ras in EJ cells; assay: Total cellular Ras in EJ cells (immunoblot of total homogenate); type: cell-based, rat; conditions: 15 hours, total cell homogenate; read-out: EC50 for decrease in the total amount of Ras in EJ cells
Procedure: In experiments where the total amount of Ras was estimated, the cells were homogenized as detailed above and samples of the total cell-homogenate (15 μg protein) were loaded onto the gel. For immunoblotting, we have also used the pan-Ras Ab (Calbiochem) at a 1:2000 dilution, and anti-mouse IgG-HRP at a 1:7500 dilution. To develop, the blots were exposed to ECL. The same immunoblotting procedure was also used in the cell-free system experiments. If Ras is degraded after it is dislodged, total cellular Ras should fall after FTS treatment. To investigate this, EJ cells were incubated for 15 hours, with various concentrations of FTS as detailed in FIG. 3, supra, then homogenized and total cell Ras measured by immunoblot assay. FTS caused a dose dependent decrease in the total amount of Ras in treated EJ cells. Densitometric analysis of data, such as that of FIG. 5A, is presented in FIG. 5B as the mean percent of control of 3 experiments. The EC5O was 15 μM (FIG. 5B), which is similar to that determined for the effect of FTS on particulate Ras.

[4] = target: T2, oncogenic Ras in EJ cells (Homo sapiens, UniProt P01112, G12V); assay: Dislodging of Ras from membranes in intact EJ cells (particulate/cytosolic fractions, immunoblot); type: cell-based, rat
T2 construct: expressed in transfected cells; host or cells: Rat1 fibroblasts transformed with Ha-Ras (EJ cells)
Procedure: Ha-Ras transformed Rat1 cells (EJ cells) were plated at a density of 4×10^6 cells/10 cm dish. After 3 hr the cells were treated for 15 hr (dose response) or for 2, 6, 12, or 24 hr (time course) with FTS (0-50 μM, dose response) or (25 μM, time course) or (0.1% DMSO, control). The cells were then detached from the dishes and washed in phosphate-buffered saline (PBS). All the subsequent procedures were carried out at 4° C. The cell pellets were homogenized in […] of homogenization buffer 20 mM Tris-HCl, pH=7.6) leupeptine (5 μg/ml), pepstatine (5 μg/ml), benzamidine (1 μM), phenylmethyl-sulphonyl fluoride (1 mM), aprotinine (5 units/ml), and MgCI2 (10 mM). Total cell membranes (P100) and cytosol (S100) were obtained by a 100,000×g centrifugation step (30 min). Following resuspension of the P100 in 750 μl of homogenization buffer, both S100 and P100 received 75 μl of 10×immunoprecipitation buffer (100 mM Tris-HCl, pH=7.5, 1.5 M NaCl, 10% Triton X-100). Samples were frozen for 1 hr at −70° C. and then thawed. Insoluble material was removed by a 10 min 10,000×g spin and the clear supernatant was used for immunoprecipitation. Samples containing 500 μg protein of P100 and the equivalent amount of S100 protein, were incubated for 12 hr with 2 μg of Y13-259 antibodies coupled to agarose bends (Oncogene Science). The beads were then precipitated and washed four times with 1 ml of immunoprecipitation buffer, twice with 1 ml of 20 mM Tris-HCl, pH=7.6, and then resuspended in 20 μl of SDS-sample buffer. Proteins were then separated by 12.5% SDS-PAGE (mini gels) and blotted onto nitrocellulose paper. The paper was blocked with 10% skimmed milk in tris-buffered saline and then incubated for 7 hr with rabbit anti-Ras serum diluted 1:1000 with tris buffered saline containing 10 mg/ml bovine serum albumin and 0.05% tween-20 (anti-Ras antiserum was prepared by immunizing rabbits with recombinant human-Ha-Ras (Marom et al.). Immunoblots were then incubated for 1 hr with 1:5000 dilution of goat anti-rabbit IgG-horseradish peroxidase (HRP) conjugate (Sigma) and developed by exposing to ECL.
Here, EJ cells were plated at a density of 4×10^6 cells/10 cm dish. The plated cells were cultured for 3 hours and then received new media containing 0.1% DMSO with or without 25 μM FTS. The cells were further cultured for 2, 4, 12, or 24 hours before harvesting and fractionation into particulate and cytosolic fractions. Ras proteins were immunoprecipitated from the fractions, subjected to SDS-PAGE, immunoblotted and developed with ECL as described in the methods, supra. The density of the bands produced from the particulate fraction (FIG. 3A) and the cytosolic fraction (FIG. 3B) was measured with a scanning densitometer. The data obtained from the densitometric analysis are presented in FIG. 3C as the ratio of values of test (FTS treated) over control (DMSO only) cells. The mean values of three separate experiments are shown.
Referring to FIGS. 4A and 4B, the effect of FTS in dislodging Ras from EJ cell membranes was investigated for dose dependence. Here, Ras protein concentration was determined in the particulate fraction of EJ cells that were exposed to the indicated concentrations of FTS (0-50 μM) and AFC (50 μM) for 15 hours as detailed for FIG. 3, supra. The densitometric analysis of the immunoblot bands shown in FIG. 4A are presented in FIG. 4B as mean % of control of three experiments.

normal Ras in Rat1 cells = assay: Ras (total and particulate) in Rat1 cells; type: cell-based, rat
Procedure: In experiments where the total amount of Ras was estimated, the cells were homogenized as detailed above and samples of the total cell-homogenate (15 μg protein) were loaded onto the gel. For immunoblotting, we have also used the pan-Ras Ab (Calbiochem) at a 1:2000 dilution, and anti-mouse IgG-HRP at a 1:7500 dilution. To develop, the blots were exposed to ECL. The same immunoblotting procedure was also used in the cell-free system experiments. The effect of FTS on total Ras in Rat1 cells (Rat1 cells have normal rather than oncogenic Ras) was also examined using the same procedures and conditions as that used for EJ cells in FIGS. 5A & 5B. […] However, dislodging normal Ras in Rat1 cells required 50 μM FTS whereas the oncogenic Ras found in EJ cell is dislodged at lower concentrations of the drug (FIG. 5A). Thus, FTS may have some selectivity towards the activated forms of Ras. This may account for the fact that FTS is not toxic at doses that inhibit the growth of Ras dependent cells and tumors (see toxicology section below.)

[5] = system: v-raf or T-antigen transformed cells; conditions: cited from earlier work
[6] = FTS 5-50 μM; cited from earlier work
[7] = system: G protein β (Gβ) in EJ cell membranes; assay: Immunoblotting of Gβ in EJ cell membranes; type: cell-based, rat; conditions: same conditions as for Ras detection
Procedure: The level of G protein β (Gβ) was determined in membranes of EJ cells that were grown in the absence and in the presence of FTS in the same conditions that were used for Ras detection. A sample of 25 μg membrane proteins were separated by SDS-PAGE (12.5%), and blotted to nitrocellulose paper. Immunoblots were performed by using rabbit anti Gβ antibodies (dilution of 1:1000) as a first antibody and goat anti rabbit IgG HRP (Sigma) as a second antibody (dilution of 1:5000). To develop, the blots were exposed to ECL.

[8] = Toxicity / cytotoxicity of FTS

CC(C)=CCC/C(C)=C/CC/C(C)=C/CSc1c(Cl)cccc1C(=O)O [3-CI-FTS]
Dislodging of Ras (% of control) in a cell free system (10 μM drug) [1]: 109 % of control | dislodging of Ras from isolated membrane ([1]; cell free): did not dislodge Ras | EC50 (EJ cells; EJ cells): > 50 µM

CC(C)=CCCC(C)=CCCC(C)=CCSc1cc(Cl)ccc1C(=O)O [4-Cl-FTS]
Dislodging of Ras (% of control) in a cell free system (10 μM drug) [1]: 85 % of control | EC50 (EJ cells; EJ cells): 28 ± 3 µM

CC(C)=CCC/C(C)=C/CC/C(C)=C/CSc1ccc(Cl)cc1C(=O)O [5-Cl-FTS]
Dislodging of Ras (% of control) in a cell free system (10 μM drug) [1]: 87 % of control | EC50 (EJ cells; EJ cells): 8.5 ± 2.4 µM

COC(=O)c1ccccc1SCC=C(C)CCC=C(C)CCC=C(C)C [FMTS, carboxymethyl FTS]
Dislodging of Ras (% of control) in a cell free system (10 μM drug) [1]: 110 % of control | dislodging of Ras from isolated membrane ([1]; cell free): did not dislodge Ras | Inhibition of EJ cells Growth EC50 (μM) (EJ cells; EJ cells): Not active at 50 μM

CC(C)=CCCC(C)=CCCC(C)=CCSc1ccccc1C(=O)O [FTS, Farnesylthiosalicylic acid]
inhibition of farnesylation or methylation of Ras in intact cells (Ras): does not inhibit farnesylation or methylation of Ras | concentration range of dose-dependent growth inhibition [2]: 1-25 μm | EC50 [3]: 15 µM | cytosolic Ras after exposure ([4]; FTS 25 μM, 2 to 6 hours after exposure, transient): significant increase in cytosolic Ras | decrease in the amount of particulate Ras versus control levels ([4]; FTS 25 μM, after 24 hours, EJ cells, densitometry, 3 experiments): 80% | concentration range that will produce maximal displacement of Ras ([4]; cell membranes): 10 to 50 µM | concentrations required to dislodge Ras from cell membranes ([4]; cell membranes): < 25 µM | EC50 ([4]; intact EJ cells, 15 hours, 0-50 μM, read-out: EC50 for dislodging Ras from EJ cell membranes (particulate Ras)): ~10 µM | concentration required for dislodging normal Ras in Rat1 cells (normal Ras in Rat1 cells; particulate Ras, Rat1 cells): 50 µM | effect on total Ras in Rat1 cells (normal Ras in Rat1 cells; same conditions as EJ cells, dose response shifted to the right): significant decrease in Ras | Dislodging of Ras (% of control) in a cell free system (10 μM drug) [1]: 56 % of control | EC50 ([1]; cell free, 60 min at 37° C.): 10 to 15 µM | EC50 (EJ cells; Rattus norvegicus, EJ): 7.5 ± 3.7 µM | effect on growth of v-raf or T-antigen transformed cells [5]: does not affect the growth | cytotoxicity at growth-inhibiting concentrations [6]: without producing cytotoxicity | amount of Gβ associated with EJ cell membranes [7]: did not reduce the amount of Gβ | toxicity at doses that inhibit the growth of Ras dependent cells and tumors [8]: not toxic

CC(C)=CCC/C(C)=C/CSc1ccccc1C(=O)O [GTS, geranyl thiosalicylic acid]
Dislodging of Ras (% of control) in a cell free system (10 μM drug) [1]: 100 % of control | dislodging of Ras from isolated membrane ([1]; cell free): did not dislodge Ras | Inhibition of EJ cells Growth EC50 (μM) (EJ cells; EJ cells): Not active at 50 μM
